According to US7771713B2, “Chemical composition that attract arthropods” (priority 1999, dated 2010):

Experiments:
Aedes aegypti = assay: Olfactometer attraction test, treatment port vs control port, approximately 75 female mosquitoes; format: in vivo; conditions: for Δ [(Resp with LA) − Resp] (%): difference between response with L-lactic acid and response alone; for Response with Ace (%): base compound together with acetone; for Δ [(Resp with Ace) − Resp] (%): difference between response with acetone and response alone
Description: The tests were conducted in an olfactometer (55 ft^3/min airflow, 80° F., 60% R.H.) as described by Posey, J. Med. Entomol., 35, 330-334 (1998); and LA is lactic acid. Mosquitoes were allowed to settle at least one hour prior to testing. The olfactometer was cleaned after each battery of tests. Each battery consisted of three tests, conducted at 08:30, 11:00 and 13:00 hours local time. Each of the three tests was conducted in a separate cage. The control consisted of identical sample delivery devices and conditions compared to that of the treatment side. Both the treatment and control ports were opened and closed simultaneously when inserting a new treatment/control.

Anopheles albimanus = assay: Olfactometer attraction test of compounds and compositions; format: in vivo; conditions: single treatment, 500 μL;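 also: olfactometer with a treatment port and a matching control port using identical delivery device and conditions, both opened together, three tests per battery, each run in its own cage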
[1] = compound 500 μL together with L-lactic acid
[2] = compound alone, high dose of 500 μL
[3] = single compound, dose 500 (μL), 60 mL glass petri dish, Aedes aegypti attraction
[4] = base compound alone (mode of action similar to lactic acid)
[5] = no Base, Activator1 dose 500, 60 mL glass petri dish

Row | SMILES | Response with L-LA (%) (Aedes aegypti; [1]) | Response (%) (Aedes aegypti; [2]) | Δ [(Resp with LA) − Resp] (%) (Aedes aegypti) | other results
1 | C=O [formaldehyde (37%), formaldehyde] | 5% | 1% | 4% | –
2 | CCCCCC(=O)C(C)C [2-Methyl-3-Octanone] | – | – | – | % caught (Anopheles albimanus): 30.1%
3 | c1ccc2[nH]ccc2c1 [Indole] | – | – | – | % caught (Anopheles albimanus): 1.3%
4 | CC(=O)CCC(C)C [5-Methyl-2-Hexanone] | – | – | – | % caught (Anopheles albimanus): 11.7%
5 | CC=CC(=O)CC [4-Hexen-3-one] | – | – | – | % caught (Anopheles albimanus): 79.2%
6 | Cn1cccc1 [1-Methylpyrrole] | – | – | – | % caught (Anopheles albimanus): 10.7%
7 | CC(C)=CC(=O)C=C(C)C [Phorone] | – | – | – | % caught (Anopheles albimanus): 50.6%
8 | CCCCCCCCCO [1-Nonanol] | – | – | – | % caught (Anopheles albimanus): 4.1%
9 | Cc1ccccc1 [toluene] | 59% | 7% | 52% | –
10 | C=O [Formaldehyde] | – | – | – | Response Avg % (Aedes aegypti; [3]): 1.0%
11 | CCCCC/C=C/C(C)=O [t-3-Nonen-2-one] | – | – | – | % caught (Anopheles albimanus): 10.7%
12 | O=C(O)C(O)C(O)C(=O)O (stereo not drawn) [tartaric acid] | – | – | – | Response (%) (Aedes aegypti; [4]): 9%; Response with Ace (%) (Aedes aegypti): 67%; Δ [(Resp with Ace) − Resp] (%) (Aedes aegypti): 58%
13 | CCCC(=O)OC [Methylbutyrate] | – | – | – | % caught (Anopheles albimanus): 55.8%
14 | CCOCC [diethyl ether] | 56% | 25% | 31% | –
15 | CCC(=O)O [propanoic acid] | 1% | 3% | −2% | Response Avg % (Aedes aegypti; [3]): 3.0%
16 | C[S+](C)[O-] [Dimethylsulfoxide] | – | – | – | Response Avg % (Aedes aegypti; [3]): 3.0%
17 | O=C(O)CO [glycolic acid] | – | – | – | Response (%) (Aedes aegypti; [4]): 17%; Δ [(Resp with Ace) − Resp] (%) (Aedes aegypti): 64%

Row | SMILES | Response with L-LA (%) (Aedes aegypti; [1]) | Response (%) (Aedes aegypti; [2]) | Δ [(Resp with LA) − Resp] (%) (Aedes aegypti) | other results
18 | CO [methanol] | 66% | 10% | 56% | –
19 | CC=O [acetaldehyde] | 29% | 8% | 21% | –
20 | C=CC(O)CCCC (stereo not drawn) [1-hepten-3-ol] | 15% | 10% | 5% | attraction of various mixtures and items (Aedes aegypti; default LA 200 μg, other chemicals 500 μL unless specified, containers as in the label): 7%
21 | C[S+](C)[O-] [dimethyl sulfoxide] | 30% | 3% | 27% | –
22 | CC(C)C=O [isobutyraldehyde] | 32% | 13% | 19% | –
23 | CO [MeOH] | – | – | – | Response Avg % (Aedes aegypti; [5]): 10.0%
24 | C=CCCCCCCC [1-nonene] | 8% | 6% | 2% | Response (%) (Aedes aegypti; [4]): 6%; Response with Ace (%) (Aedes aegypti): 54%; Δ [(Resp with Ace) − Resp] (%) (Aedes aegypti): 48%
25 | CC#N [acetonitrile] | 81% | 27% | 54% | –
26 | CCO [ethanol] | 57% | 9% | 48% | –
27 | C[C@@H](O)C(=O)O [D-lactic acid] | – | – | – | Response (%) (Aedes aegypti; [4]): 8%; Response with Ace (%) (Aedes aegypti): 82%; Δ [(Resp with Ace) − Resp] (%) (Aedes aegypti): 74%
28 | CCCCCCCCC=O [nonanal] | – | – | 10% | –
29 | C=CCCCCC [1-heptene] | 19% | 5% | 14% | Response (%) (Aedes aegypti; [4]): 4%; Response with Ace (%) (Aedes aegypti): 34%; Δ [(Resp with Ace) − Resp] (%) (Aedes aegypti): 30%; Response Avg % (Aedes aegypti; [3]): 5.0%
30 | CC=CC(C)=O [3-penten-2-one] | 49% | 11% | 38% | –
31 | CC(C)C=O [Isobutanal] | – | – | – | Response Avg % (Aedes aegypti; [5]): 13.0%
32 | O=C=O [carbon dioxide, reference compound] | – | – | – | Response Avg % (Aedes aegypti; CO2 alone, dose 0.5, Aedes aegypti attraction): 4.0%; Response with L-LA (%) (Aedes aegypti; carbon dioxide 5 ml/min with L-lactic acid): 68%
33 | C=CCCCCCC [1-octene] | 42% | 38% | 4% | Response (%) (Aedes aegypti; [4]): 38%; Response with Ace (%) (Aedes aegypti): 63%; Δ [(Resp with Ace) − Resp] (%) (Aedes aegypti): 25%
34 | BrC(Br)Br [bromoform] | 64% | 27% | 37% | –
